Experimental data taken from PubChem BioAssay (NCI).
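Test compounds were applied to cells in 96-well plates for 48 hours at 5 doses. GI50: concentration for 50% inhibition of growth. TGI denotes the concentration required for complete inhibition of growth.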

Key:
Test in all cases: DTP human tumour cell line panel, 48 h
OVCAR-4 ovarian = test system: OVCAR-4 ovarian
LOX IMVI melanoma = test system: LOX IMVI melanoma
DU-145 prostate = test system: DU-145 prostate
HT29 colon = test system: HT29 colon
786-0 renal = test system: 786-0 renal
SK-MEL-28 melanoma = test system: SK-MEL-28 melanoma
HOP-92 NSCLC = test system: HOP-92 NSCLC
COLO 205 colon = test system: COLO 205 colon
SK-MEL-5 melanoma = test system: SK-MEL-5 melanoma
KM12 colon = test system: KM12 colon

Structure (SMILES)	GI50 (OVCAR-4 ovarian)	TGI (OVCAR-4 ovarian)	GI50 (LOX IMVI melanoma)	TGI (LOX IMVI melanoma)	GI50 (DU-145 prostate)	TGI (DU-145 prostate)	GI50 (HT29 colon)	TGI (HT29 colon)	GI50 (786-0 renal)	TGI (786-0 renal)	GI50 (SK-MEL-28 melanoma)	TGI (SK-MEL-28 melanoma)	GI50 (HOP-92 NSCLC)	TGI (HOP-92 NSCLC)	GI50 (COLO 205 colon)	TGI (COLO 205 colon)	GI50 (SK-MEL-5 melanoma)	TGI (SK-MEL-5 melanoma)	GI50 (KM12 colon)	TGI (KM12 colon)
CN1CCN(Cc2ccc(NC(=O)c3cncc(C#Cc4cnc(N)c5cnccc45)c3)cc2C(F)(F)F)CC1	129 nM	7520 nM	74.5 nM	260 nM	214 nM	6210 nM	115 nM	6100 nM	314 nM	7730 nM	93.7 nM	394 nM	72.5 nM	287 nM	98.2 nM	6000 nM	277 nM	952 nM	16.9 nM	5530 nM
C=C1C(=O)O[C@H]2[C@H]1CC/C(COC(=O)NCCCCCCCCNC(=O)OC/C1=C/CC[C@@]3(C)O[C@H]3[C@H]3OC(=O)C(=C)[C@@H]3CC1)=C\CC[C@@]1(C)O[C@@H]21	521 nM	1860 nM	178 nM	368 nM	1100 nM	2300 nM	228 nM	554 nM	244 nM	646 nM	206 nM	511 nM	177 nM	551 nM	300 nM	756 nM	1210 nM	2590 nM	1290 nM	3110 nM
C[CH2][Sn]([CH2]C)([O]C(=O)c1ccc(OC)c(OC)c1OC)[O]C(=O)c1ccc(OC)c(OC)c1OC	> 82600 nM	> 100000 nM	27200 nM	> 69700 nM	> 100000 nM	> 100000 nM	> 96000 nM	> 100000 nM	58600 nM	> 100000 nM	26600 nM	> 69000 nM	21800 nM	49600 nM	65100 nM	> 100000 nM	99200 nM	> 100000 nM	> 100000 nM	> 100000 nM
Cc1ccc(S(=O)(=O)Nc2ccc(-c3cc(-c4cccc(F)c4)c(C#N)c(N)n3)cc2)cc1	1770 nM	3670 nM	1820 nM	3660 nM	2330 nM	5450 nM	3400 nM	12300 nM	1710 nM	3120 nM	1960 nM	4080 nM	1060 nM	2370 nM	2180 nM	4480 nM	1770 nM	3230 nM	3100 nM	10200 nM
COCc1c(-c2ccc(NC(=O)Nc3cc(C(F)(F)F)ccc3F)c(F)c2)c2c(N)ncnn2c1CN1CCOCC1	1970 nM	> 10000 nM	1360 nM	5770 nM	2090 nM	> 10000 nM	1620 nM	> 10000 nM	2760 nM	> 10000 nM	3020 nM	> 10000 nM	382 nM	5970 nM	1050 nM	2710 nM	2490 nM	> 10000 nM	41 nM	5430 nM
O=C(O)CCC(C(=O)O)N1C(=O)C2C3CCC(C3)C2C1=O (stereo not given)		> 100000 nM		> 100000 nM		> 100000 nM		> 100000 nM		> 100000 nM		> 100000 nM		> 100000 nM		> 100000 nM		> 100000 nM		> 100000 nM
COc1ccc2c(c1OC(C)=O)C1=CC(=O)CCC13CCNC3C2 (stereo not given)		> 100000 nM		> 100000 nM		> 100000 nM		> 100000 nM		> 100000 nM		> 100000 nM		> 100000 nM		> 100000 nM		> 100000 nM		> 100000 nM
